The values that follow come from patent US11458201B2, “Mucosal active agent delivery” (Suda Ltd., priority 2016, dated 2022).

A short description of data set [1]: In vitro single hydrotrope permeability experiments, coated artificial membranes (Franz cell). It counts as in vitro ADME. Here is the method:
The solutions thus contain the exact same concentration of active agent in the presence or absence of hydrotrope. The samples may then be tested for permeability through an artificial membrane under identical conditions so that the effect of the hydrotrope on the permeability of the active can be assessed.
Regenerated cellulose membrane filters are coated with lecithin in dodecane for permeation experiments. […] Air bubbles are removed before donor chamber is clamped. The filter is incubated for 1 h and any excess lecithin solution is then removed. All samples are continuously stirred on a magnetic plate at 300 rpm for duration of pre-incubation and subsequent permeation experiment.
After membrane preparation and equilibration, 240 uL each of formulation at buffer pH 6.8 are added to the donor chamber.

For data set [2] the following is noted: cited from earlier work; for logP: as listed in table of actives by hydrotrope class; for log P: list of suitable active agents.
The test system of a further data set is porcine buccal mucosa. Description: Ex vivo permeability experiments, porcine buccal membranes in Franz cells. The format is in vitro ADME, domestic pigs (Sus scrofa domestica). Here is the method: Buccal tissue from domestic pigs (Sus scrofa domestica) were obtained from a local abattoir directly after slaughter and immediately placed on ice. Within 2 hours of collection, tissue is prepared for delivery experiments. For permeation experiments tissue is placed in pH 6.8 PBS and epithelium separated from the connective tissue using surgical dissection or by contact in solution (pH 6.8 PBS) heated to 65° C. for 60 seconds. Surgical dissection is preferred method for maintaining intact epithelia with minimal impact on integrity which can occur with heating. After isolation, tissue is placed on Franz cell receiver chamber filled with PBS at pH optimised for permeant solubility and containing micro-stirring bar. Air bubbles are removed before donor chamber is clamped. The exposed epithelial surface is pre-incubated in pH 6.8 PBS in air incubator heated to 37° C. for minimum 15 minutes to equilibrate to temperature. All samples are continuously stirred on a magnetic plate at 300 rpm for duration of pre -incubation and subsequent permeation experiment. After equilibration, the donor chamber buffer is removed by pipette and replaced with active agent solution to be tested. […] At time 0 samples of 200 ul is removed from receiver chamber and 200 ul volume replaced with buffer. Samples taken at timed intervals (standard 15, 30, 60 minutes) are 200 ul volumes removed from side arm of receiver chamber using gel-loading pipette tips. Removed samples are placed in HPLC tubes for HPLC analysis. After each sample is taken the 200 ul volume is replaced with PBS […] buffer to maintain constant volume in receiver chamber (which will dilute slightly each subsequent sample).

Data set [3] is described as follows: In vivo studies in rabbits, buccal administration, blood PK. On the set-up: species or system rabbits (Oryctolagus cuniculus) New Zealand White. To be noted: rabbit, buccal single dose 20 mg, 2.5% caffeine and 7.5% nicotinamide (F4) in comparison to the Base formulation, FIG. 14. Here is the method: Ten male rabbits (Oryctolagus cuniculus) Strain New Zealand White (NZW) aged 8-12 weeks were delivered 5 days prior to the experiment for acclimatisation. The animals were kept in a controlled environment (targeted ranges: temperature 21±3° C., humidity 30-70%), with a light/dark cycle each of 12 hours, and under barrier (quarantine) conditions. Temperature and relative humidity was monitored continuously throughout the study duration. Feed consisted of Rabbit and Guinea Pig pellets. Municipal town water was supplied ad libitum. Dietary enrichment was provided during the acclimation period in the form of fresh fruit and vegetables. Enrichment items were not provided following randomisation into study groups and during dose administration.
Prior to dose administration, a total of ten male NZW rabbits were randomized into two groups of five based on body weight. Each animal group was allocated to receive a different sildenafil Formulation (either sildenafil Formulation 4 (F4) or sildenafil Base formulation (see Example 2)). […]
Portions of whole blood (400 μL) were collected into K2EDTA blood tubes then centrifuged and the resulting […] prior to analysis by LC-MS/MS. Peak concentration in blood (Cmax), Time to reach Cmax (Tmax), half-life (t1/2) and area under curve (AUC) were calculated.

The mark [4] stands for this setting: single hydrotrope screen, formulation at buffer pH 6.8, same active concentration with and without hydrotrope.
Where [5] appears, read: as listed with results of FIGS. 3-9.
[6] abbreviates: formulated with Class A hydrotrope caffeine, sweeteners and flavours vs same formulation minus the hydrotrope content, FIG. 13.
Where [7] appears, read: sildenafil citrate formulations containing hydrotropes (Table 4) vs Base, FIGS. 11A and 11B.

Structures can show the parent of a compound that is named as a salt. Where two headings read alike, the source gives them in different places.

As to `O=C(O)Cc1ccccc1Nc1c(Cl)cccc1Cl` [Diclofenac sodium, diclofenac sodium], in data set [1] (hydroalcoholic solution), the “penetration through an artificial membrane in the presence of various hydrotropes (most effective hydrotrope)” value is on record as “caffeine most effective”. The “log P or log D” value in data set [2] (hydroalcoholic solution) is on record as 4.75.

Broadly, the logP is the decadic logarithm of the partition coefficient of the neutral form, usually between octanol and water. As to `CN(C)CCOC(C)(c1ccccc1)c1ccccn1` (stereo not shown) [Doxylamine succinate, doxylamine succinate], in data set [1] (setting [4]), the “penetration through an artificial membrane in the presence of various hydrotropes (most effective hydrotrope)” value is given as “benzoic acid most effective”. Also, the lipophilicity (logP) in data set [2] was 2.96. Further, the “log P or log D” value in data set [2] (setting [5]) was 2.9. Moreover, in the data set on porcine buccal mucosa (setting [6]), the early permeation result is given as “does not affect” and the total permeation entry is given as “increases total permeation”.

Consider `CC(C)Cc1ccc(C(C)C(=O)O)cc1` (stereo not shown) [Ibuprofen, ibuprofen], for which, in data set [1] (setting [4]), the “penetration through an artificial membrane in the presence of various hydrotropes (most effective hydrotrope)” value was “no improvement”. Also, in data set [2] (setting [5]), the “log P or log D” value is listed as 3.5.

Usually log P stands for a log measure of how a compound divides between an organic and an aqueous phase. Turning to `Cc1nccn1CC1CCc2c(c3ccccc3n2C)C1=O` (stereo not shown) [Ondansetron HCl, ondansetron hydrochloride], the “hydrotrope class giving the greatest increases in permeability” value in data set [1] is listed as “Class A hydrotropes”. In data set [1] (setting [4]), the “penetration through an artificial membrane in the presence of various hydrotropes (most effective hydrotrope)” value is reported as “nicotinamide or caffeine most effective”. For the same compound, in data set [2], the logP entry is “Ondansetron HCl (logP 2.4” and the lipophilicity (log P) is 2.4. For the same compound, the “log P or log D” value in data set [2] (setting [5]) is 2.4.

In general, log D refers to lipophilicity at a set pH, counting ionised and neutral species. In the case of `CCCc1nn(C)c2c(=O)[nH]c(-c3cc(S(=O)(=O)N4CCN(C)CC4)ccc3OCC)nc12` [Sildenafil citrate, sildenafil citrate], in data set [2] (pH 7), the pH-dependent lipophilicity (log D) is 1.6 and the “log P or log D” value is given as 1.6. For the same compound, in data set [3], the bioavailability of sildenafil result is given as “marked increase”.

Turning to `CNS(=O)(=O)Cc1ccc2[nH]cc(CCN(C)C)c2c1` [Sumatriptan succinate, sumatriptan succinate], the “penetration through an artificial membrane in the presence of various hydrotropes (most effective hydrotrope)” value in data set [1] (setting [4]) is recorded as “benzoic acid most effective”. Also, in data set [2], the logP entry is recorded as “Sumatriptan succinate (logP 0.93” and the log partition coefficient (log P) is reported as 0.93. In data set [2] (setting [5]), the “log P or log D” value is listed as 1.7. The “log D” value in data set [2] (pH 6) is 1.7.

As to `Cc1ccc(-c2nc3ccc(C)cn3c2CC(=O)N(C)C)cc1` [Zolpidem tartrate, zolpidem tartrate], the “penetration through an artificial membrane in the presence of various hydrotropes (most effective hydrotrope)” value in data set [1] (setting [4]) is given as “citric acid most effective”. In data set [2], the lipophilicity (logP) entry is “Zolpidem tartrate (logP 1.2” and the “log P” value is reported as 1.2. The “log P or log D” value in data set [2] (setting [5]) is on record as 1.2.

As for `Cn1c(=O)c2c(ncn2C)n(C)c1=O` [caffeine], in the data set with porcine buccal mucosa (setting [7]), the “effect on early permeation” value is reported as “limited effect” and the “effect on total permeation” value is listed as “increases total permeation”.
